The record followed here is patent publication US20230233540A1, “COMBINATION OF ANTIBODY-DRUG CONJUGATE AND CDK9 INHIBITOR” (AstraZeneca UK Limited, priority 2020, published 2023).

The assay relates to HCC1954 breast cancer cells (HER2+ cell line). Briefly: Antitumor test, subcutaneous HCC1954 breast cancer xenograft, tumor growth inhibition. As to conditions: AZD4573 monotherapy in the HCC1954 model. It counts as in vivo, CB17-SCID mice. The method, then:
Tumor volume was monitored via caliper measurements, and mice were randomized based on mean tumor size. […] All AZD4573 doses were administered IP, 2 hours apart. A BID regimen was used for 10 mg/kg dose, and TID was used for 5 mg/kg dose. AZD4573 dosing was given weekly thereafter for a total of 3 cycles.
Data represents change in tumor volume over time for treatment groups.

Take `CC(=O)N[C@@H]1CCC[C@H](C(=O)Nc2cc(-c3cnn4c3CC(C)(C)C4)c(Cl)cn2)C1` [AZD4573, (1S,3R)-3-acetamido-N-(5-chloro-4-(5,5-dimethyl-5,6-dihydro-4H-pyrrolo[1,2-b]pyrazol-3-yl)pyridin-2-yl)cyclohexanecarboxamide]: the tumor growth control entry is “minimal tumor growth control”.
